{"source": "patent US20200079819A1", "about": "“Use of a Vaccine Targeting a Cryptic Tert Epitope, for Treating Lung Cancer in a HLA-A*0201-Positive Never-Smoker or Light-Former Smoker Patient” (Vaxon Biotech, priority 2017, published 2020)", "system": "HLA-A*0201 positive patients with NSCLC expressing TERT", "test": "Vx-001-201 randomized double blind phase IIb clinical trial (OS, TTF, 12 months survival)", "type": "in vivo, human", "conditions": "for OS (months) / 12 months OS / 12 months OS (%) / Median TTF (months) / Median survival (months): Vx-001 arm; for HR (OS) / HR (TTF): Vx-001 vs placebo", "description": "The Vx-001-201 study is a randomized, double blind multicenter study done in 70 centers in France, Germany, Spain, Italy, Greece, Poland, Romania and Czech Republic. Key eligibility criteria were a) non small cell lung cancer (NSCLC), b) stage IV or recurrent stage I-III, c) disease control after platinum based first line chemotherapy according to RECIST 1.1 criteria, d) HLA-A*0201 positivity, e) tumors expressing TElomerase Reverse Transcriptase (TERT), f) ECOG 0 or 1 g) absence of brain metastasis.\na) Principal endpoint: overall survival (OS) measured from randomization\nb) Secondary endpoints: • Time to Treatment Failure (TTF) measured from randomization • OS at 12 months\nPatients who fulfilled all inclusion criteria were randomized within 4 weeks after the end of first line chemotherapy.\nThe vaccination protocol consisted in six vaccinations at three weeks interval. The optimized Vx-001/TERT572Y was used in the first two vaccinations and the native Vx-001/TERT572 in the following four vaccinations. Patients who continued controlling their disease after the sixth vaccination received boost vaccination with the Vx-001/TERT572 every three months. Vaccination was stopped at disease progression (FIG. 1).\nThe primary and secondary endpoints were analysed in the Full Analysis Set composed of all patients who fulfilled the […] five main criteria a) NSCLC, b) stage IV or recurrent stage I-III, and c) disease control after first line chemotherapy, d) HLA-A*0201 positivity and e) TERT expressing tumors.\nWe used the Kaplan-Meier method to estimate OS and TTF in each arm and a Cox proportional hazards regression model to estimate Hazard Ratio (HR) relating OS and TTF to the treatment effect.", "key": {"[1]": {"conditions": "never-smokers and light-smokers (≤25 years, stopped or not), SQ (n = 14)"}, "[2]": {"conditions": "never-smokers and light-smokers (≤25 years, stopped or not), Stage IV (n = 51)"}, "[3]": {"conditions": "never-smokers and light-smokers (≤25 years, stopped or not), natural immunity No (n = 37)"}, "[4]": {"conditions": "never-smokers and light-smokers (≤25 years, stopped or not), natural immunity Yes (n = 15)"}, "[5]": {"conditions": "never-smokers and light-smokers (≤25 years, stopped or not), response to treatment OS (n = 28)"}, "[6]": {"conditions": "never-smokers and light-smokers (≤25 years, stopped or not), response to treatment SD (n = 32)"}, "[7]": {"conditions": "never-smokers or former light-smokers (≤25 years), <65 years (n = 24)"}, "[8]": {"conditions": "never-smokers or former light-smokers (≤25 years), >65 years (n = 31)"}, "[9]": {"conditions": "never-smokers or former light-smokers (≤25 years), CARBO (n = 37)"}, "[10]": {"conditions": "never-smokers or former light-smokers (≤25 years), CDDP (n = 18)"}, "[11]": {"conditions": "never-smokers or former light-smokers (≤25 years), Female (n = 23)"}, "[12]": {"conditions": "never-smokers or former light-smokers (≤25 years), MH + NSQ (n = 42)"}, "[13]": {"conditions": "never-smokers or former light-smokers (≤25 years), Male (n = 32)"}, "[14]": {"conditions": "never-smokers or former light-smokers (≤25 years), SQ (n = 13)"}, "[15]": {"conditions": "never-smokers or former light-smokers (≤25 years), natural immunity No (n = 33)"}, "[16]": {"conditions": "never-smokers or former light-smokers (≤25 years), natural immunity Yes (n = 14)"}, "[17]": {"conditions": "never-smokers or former light-smokers (≤25 years), response to chemotherapy OR (n = 26)"}, "[18]": {"conditions": "never-smokers or former light-smokers (≤25 years), response to chemotherapy SD (n = 29)"}, "[19]": {"conditions": "never-smokers or former light-smokers (≤25 years), stable disease SD after first-line chemotherapy (n = 29)"}}, "note": "No end group written: not given here."}
{"substance": "Vx-001: vaccine composed of two nine-amino-acid peptides, TERT572 (SEQ ID No: 1) and TERT572Y (SEQ ID No: 2), administered separately with adjuvant Montanide ISA51 VG (chain 1 RLFFYRKSV; chain 2 YLFFYRKSV; not fully specified)", "values": [{"measurement": "OS (months)", "setting": "[1]", "result": 14.1, "unit": "months"}, {"measurement": "HR (OS)", "setting": "[1]", "result": 0.81}, {"measurement": "12 months OS", "setting": "[2]", "result": 69.2, "unit": "%"}, {"measurement": "OS (months)", "setting": "[2]", "result": 16.2, "unit": "months"}, {"measurement": "HR (OS)", "setting": "[2]", "result": 0.44}, {"measurement": "12 months OS", "setting": "[3]", "result": 83.0, "unit": "%"}, {"measurement": "OS (months)", "setting": "[3]", "result": 20.7, "unit": "months"}, {"measurement": "HR (OS)", "setting": "[3]", "result": 0.27}, {"measurement": "12 months OS", "setting": "[4]", "result": 66.0, "unit": "%"}, {"measurement": "OS (months)", "setting": "[4]", "result": 15.3, "unit": "months"}, {"measurement": "HR (OS)", "setting": "[4]", "result": 0.87}, {"measurement": "12 months OS", "setting": "[5]", "result": 63.6, "unit": "%"}, {"measurement": "OS (months)", "setting": "[5]", "result": 15.3, "unit": "months"}, {"measurement": "HR (OS)", "setting": "[5]", "result": 0.91}, {"measurement": "12 months OS", "setting": "[6]", "result": 75.0, "unit": "%"}, {"measurement": "OS (months)", "setting": "[6]", "result": 24.7, "unit": "months"}, {"measurement": "HR (OS)", "setting": "[6]", "result": 0.34}, {"measurement": "12 months OS (%)", "setting": "[7]", "result": 77, "unit": "%"}, {"measurement": "Median TTF (months)", "setting": "[7]", "result": 2.9, "unit": "months"}, {"measurement": "Median survival (months)", "setting": "[7]", "result": 20.2, "unit": "months"}, {"measurement": "HR (OS)", "setting": "[7]", "result": 0.46}, {"measurement": "HR (TTF)", "setting": "[7]", "result": 1.07}, {"measurement": "12 months OS (%)", "setting": "[8]", "result": 69.2, "unit": "%"}, {"measurement": "Median TTF (months)", "setting": "[8]", "result": 4.6, "unit": "months"}, {"measurement": "Median survival (months)", "setting": "[8]", "result": 15.3, "unit": "months"}, {"measurement": "HR (OS)", "setting": "[8]", "result": 0.64}, {"measurement": "HR (TTF)", "setting": "[8]", "result": 0.71}, {"measurement": "12 months OS (%)", "setting": "[9]", "result": 64.7, "unit": "%"}, {"measurement": "Median TTF (months)", "setting": "[9]", "result": 2.9, "unit": "months"}, {"measurement": "Median survival (months)", "setting": "[9]", "result": 15.3, "unit": "months"}, {"measurement": "HR (OS)", "setting": "[9]", "result": 0.63}, {"measurement": "HR (TTF)", "setting": "[9]", "result": 0.90}, {"measurement": "12 months OS (%)", "setting": "[10]", "result": 88.8, "unit": "%"}, {"measurement": "Median TTF (months)", "setting": "[10]", "result": 5.6, "unit": "months"}, {"measurement": "Median survival (months)", "setting": "[10]", "result": 24.7, "unit": "months"}, {"measurement": "HR (OS)", "setting": "[10]", "result": 0.50}, {"measurement": "HR (TTF)", "setting": "[10]", "result": 0.87}, {"measurement": "12 months OS (%)", "setting": "[11]", "result": 66.6, "unit": "%"}, {"measurement": "Median TTF (months)", "setting": "[11]", "result": 4.2, "unit": "months"}, {"measurement": "Median survival (months)", "setting": "[11]", "result": 13.3, "unit": "months"}, {"measurement": "HR (OS)", "setting": "[11]", "result": 0.89}, {"measurement": "HR (TTF)", "setting": "[11]", "result": 0.98}, {"measurement": "12 months OS (%)", "setting": "[12]", "result": 73.7, "unit": "%"}, {"measurement": "Median TTF (months)", "setting": "[12]", "result": 4.2, "unit": "months"}, {"measurement": "Median survival (months)", "setting": "[12]", "result": 16.2, "unit": "months"}, {"measurement": "HR (OS)", "setting": "[12]", "result": 0.53}, {"measurement": "HR (TTF)", "setting": "[12]", "result": 0.89}, {"measurement": "12 months OS (%)", "setting": "[13]", "result": 78.6, "unit": "%"}, {"measurement": "Median TTF (months)", "setting": "[13]", "result": 2.9, "unit": "months"}, {"measurement": "Median survival (months)", "setting": "[13]", "result": 24.7, "unit": "months"}, {"measurement": "HR (TTF)", "setting": "[13]", "result": 0.82}, {"measurement": "12 months OS (%)", "setting": "[14]", "result": 71.4, "unit": "%"}, {"measurement": "Median TTF (months)", "setting": "[14]", "result": 2.9, "unit": "months"}, {"measurement": "Median survival (months)", "setting": "[14]", "result": 14.1, "unit": "months"}, {"measurement": "HR (OS)", "setting": "[14]", "result": 0.89}, {"measurement": "HR (TTF)", "setting": "[14]", "result": 0.81}, {"measurement": "12 months OS (%)", "setting": "[15]", "result": 82.3, "unit": "%"}, {"measurement": "Median TTF (months)", "setting": "[15]", "result": 5.6, "unit": "months"}, {"measurement": "Median survival (months)", "setting": "[15]", "result": 20.7, "unit": "months"}, {"measurement": "HR (TTF)", "setting": "[15]", "result": 0.43}, {"measurement": "12 months OS (%)", "setting": "[16]", "result": 66.6, "unit": "%"}, {"measurement": "Median TTF (months)", "setting": "[16]", "result": 2.4, "unit": "months"}, {"measurement": "Median survival (months)", "setting": "[16]", "result": 15.3, "unit": "months"}, {"measurement": "HR (OS)", "setting": "[16]", "result": 0.90}, {"measurement": "HR (TTF)", "setting": "[16]", "result": 1.86}, {"measurement": "12 months OS (%)", "setting": "[17]", "result": 72.7, "unit": "%"}, {"measurement": "Median TTF (months)", "setting": "[17]", "result": 2.8, "unit": "months"}, {"measurement": "Median survival (months)", "setting": "[17]", "result": 15.3, "unit": "months"}, {"measurement": "HR (OS)", "setting": "[17]", "result": 0.96}, {"measurement": "HR (TTF)", "setting": "[17]", "result": 1.33}, {"measurement": "Median TTF (months)", "setting": "[18]", "result": 3.6, "unit": "months"}, {"measurement": "HR (TTF)", "setting": "[18]", "result": 0.58}, {"measurement": "12 months OS (%)", "setting": "[19]", "result": 73.3, "unit": "%"}, {"measurement": "Median survival (months)", "setting": "[19]", "result": 24.7, "unit": "months"}, {"measurement": "Effect on OS (in words)", "setting": "never/light-smokers (≤25 years, stopped or not), Table 7 population", "result": "significantly prolonged OS"}]}
